Reference: article PMC5706701, “Development of a homogenous high-throughput assay for inositol hexakisphosphate kinase 1 activity” (PLoS ONE, 2017)
Structures can show the parent of a compound that is named as a salt. Where two headings read alike, the source gives them in different places.

Molecular target: T1, Human IP6K1 (Homo sapiens, UniProt Q92551)
T1 construct: GST (N, cleaved yes); made in house; host or cells: C43 E. coli, pGEX-6P-2
Assay: IP6K1 high-throughput screen of the Sigma LOPAC (ADP-Glo Max, single point);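 note: final compound concentration 10µM in 5% DMSO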
Format: biochemical

[1] = LOPAC single-point screen, ADP-Glo Max raw signal per well
[2] = LOPAC single-point screen, Z-score against plate average and StDev
[3] = Sigma LOPAC single-point screen, ADP-Glo Max raw signal per well
[4] = Sigma LOPAC single-point screen, Z-score from plate average and StDev
[5] = LOPAC single-point screen, Z-score from raw signal with plate average and StDev
[6] = LOPAC single-point screen, ADP-Glo Max luminescence raw signal per well
[7] = LOPAC single-point screen, Z-score relative to plate average and StDev
[8] = LOPAC single-point screen, Z-score from plate average and StDev

T1 sequence (Q92551 whole entry): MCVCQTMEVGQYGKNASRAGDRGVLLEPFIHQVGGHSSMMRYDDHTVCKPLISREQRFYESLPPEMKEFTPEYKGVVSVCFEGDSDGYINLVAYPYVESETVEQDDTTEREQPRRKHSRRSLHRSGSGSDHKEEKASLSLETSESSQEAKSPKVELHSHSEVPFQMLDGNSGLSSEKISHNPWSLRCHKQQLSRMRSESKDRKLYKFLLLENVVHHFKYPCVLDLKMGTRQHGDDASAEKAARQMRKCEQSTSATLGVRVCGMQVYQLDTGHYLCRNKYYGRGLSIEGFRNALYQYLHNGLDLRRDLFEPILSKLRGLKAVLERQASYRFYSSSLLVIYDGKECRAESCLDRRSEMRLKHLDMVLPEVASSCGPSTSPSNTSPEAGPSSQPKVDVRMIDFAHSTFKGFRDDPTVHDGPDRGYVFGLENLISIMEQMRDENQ

CC(C)[C@H](CO)Nc1nc(Nc2cccc(Cl)c2)c2ncn(C(C)C)c2n1 [Purvalanol A]
Raw Signal [1]: 54135 | Z-score [2]: -0.04344

CC(=O)O[C@H]1C(=O)[C@@]2(C)[C@H]([C@H](OC(=O)c3ccccc3)[C@]3(O)C[C@H](OC(=O)[C@H](O)[C@@H](NC(=O)c4ccccc4)c4ccccc4)C(C)=C1C3(C)C)[C@]1(OC(C)=O)CO[C@@H]1C[C@@H]2O [Taxol]
Raw Signal [3]: 58493 | Z-score [4]: 0.4797

(-)-3-Methoxynaltrexone hydrochloride
Raw Signal [1]: 54969 | Z-score [2]: 0.0967

COc1cc2c(cc1OC)-c1c/c(=N\c3c(C)cc(C)cc3C)n(C)c(=O)n1CC2 [Trequinsin hydrochloride]
Raw Signal [1]: 54369 | Z-score [5]: -0.3215

Cl.NCCCCC(=O)O [5-Aminovaleric acid hydrochloride]
Raw Signal [1]: 58378 | Z-score [2]: 0.08188

CCCCCCCCCC(=O)N[C@H](CN1CCOCC1)[C@H](O)c1ccccc1.Cl (racemic)
Raw Signal [3]: 58472 | Z-score [4]: 0.4756

NCCCCN=C(N)N [Agmatine sulfate]
Raw Signal [1]: 56032 | Z-score [5]: -0.3313

CN(C)CCC(c1ccccc1)c1ccccn1 (centres unmarked) [Pheniramine maleate]
Raw Signal [1]: 57488 | Z-score [2]: 0.2845

NC(=O)NO [Hydroxyurea]
Raw Signal [6]: 51854 | Z-score [7]: -0.6728

CC[C@]1(O)C[C@H]2CN(CCc3c([nH]c4ccccc34)[C@@](C(=O)OC)(c3cc4c(cc3OC)N(C=O)[C@H]3[C@@](O)(C(=O)OC)[C@H](OC(C)=O)[C@]5(CC)C=CCN6CC[C@]43[C@@H]65)C2)C1 [Vincristine sulfate]
Raw Signal [3]: 57865 | Z-score [4]: 0.3577

O=C(CCCN1CCC2(CC1)C(=O)NCN2c1ccccc1)c1ccc(F)cc1 [Spiperone hydrochloride]
Raw Signal [6]: 52620 | Z-score [7]: -0.6613

O=C(O)CCCCCCC1C(=O)NC(=O)N1CCC(O)C1CCCCC1 (centres unmarked) [BW 245C]
Raw Signal [6]: 64569 | Z-score [8]: 1.71

CCCCCCCCCCCCCCCC(=O)NCCO [Palmitoylethanolamide]
Raw Signal [6]: 51451 | Z-score [7]: -0.4944

Cn1c(=O)c2[nH]cnc2n(C)c1=O.Cn1c(=O)c2[nH]cnc2n(C)c1=O.NCCN [Aminophylline ethylenediamine]
Raw Signal [1]: 57914 | Z-score [2]: 0.0001585

N#CC(C#N)=C(N)/C(C#N)=C/c1ccc(O)cc1 [Tyrphostin AG 112]
Raw Signal [6]: 52903 | Z-score [7]: -0.6063

C[N+](C)(C)CCOP(=O)([O-])OP(=O)([O-])OC[C@H]1O[C@@H](n2ccc(N)nc2=O)[C@H](O)[C@@H]1O.[Na+] [Citicoline sodium]
Raw Signal [3]: 63989 | Z-score [4]: 1.07

Cl.Clc1cc(I)cc(Cl)c1NC1=NCCN1 [p-Iodoclonidine hydrochloride]
Raw Signal [1]: 52843 | Z-score [5]: -0.2605

O=C(O)[C@H]1C[C@H](C(=O)O)N1 (relative stereo) [trans-Azetidine-2,4-dicarboxylic acid]
Raw Signal [1]: 57895 | Z-score [2]: -0.003188

COc1cc(C(=O)OCCCN2CCCN(CCCOC(=O)c3cc(OC)c(OC)c(OC)c3)CC2)cc(OC)c1OC [Dilazep hydrochloride]
Raw Signal [1]: 56027 | Z-score [2]: 0.1747

NCC(=O)NCCC(c1ccccc1)c1ccccc1 [N-(3,3-Diphenylpropyl)glycinamide]
Raw Signal [6]: 66051 | Z-score [8]: 2.21

CCN(CC)C(C)C(=O)N1c2ccccc2Sc2ccccc21.Cl (centres unmarked)
Raw Signal [1]: 55206 | Z-score [2]: 0.007914

OC(CN1CCN(c2cccc(Cl)c2)CC1)C(c1ccccc1)c1ccccc1 (centres unmarked) [BRL 15572]
Raw Signal [1]: 57949 | Z-score [2]: 0.006323

CNCCCC12CCC(c3ccccc31)c1ccccc12 [Maprotiline hydrochloride]
Raw Signal [1]: 54786 | Z-score [2]: 0.06595

C[C@@H](N)Cc1cnc[nH]1.Cl.Cl
Raw Signal: 55341 | Z-score: 0.03533

Cl.NO [Hydroxylamine hydrochloride]
Raw Signal [6]: 61813 | Z-score [8]: 1.35

CN1C[C@H](C(=O)N[C@]2(C)O[C@@]3(O)[C@@H]4CCCN4C(=O)[C@H](Cc4ccccc4)N3C2=O)C[C@@H]2c3cccc4[nH]cc(c34)C[C@H]21 [Dihydroergotamine methanesulfonate]
Raw Signal [6]: 48691 | Z-score [7]: -1.315

NCCCCNCCCN [Spermidine trihydrochloride]
Raw Signal [3]: 60576 | Z-score [4]: 0.8844

N#CC(C#N)=Cc1ccc([N+](=O)[O-])c(O)c1 [Tyrphostin AG 126]
Raw Signal [6]: 65028 | Z-score [8]: 1.749

COc1cc2nc(N3CCN(C(=O)OCc4ccccc4)[C@H](C(=O)NC(C)(C)C)C3)nc(N)c2cc1OC [L-765,314]
Z-score [5]: -0.2706

CCCCCCCC/C=C\CCCCCCCC(=O)NCCO [N-Oleoylethanolamine]
Raw Signal [1]: 53081 | Z-score [5]: -0.2205

COc1ccc2c(c1)c(CC(=O)O)c(C)n2Cc1ccc(Cl)cc1
Raw Signal [3]: 64773 | Z-score [4]: 1.208

C[N+]1(C)[C@@H]2CC(OC(=O)[C@H](CO)c3ccccc3)C[C@H]1[C@@H]1O[C@@H]12.O=[N+]([O-])[O-] (single isomer, unassigned; (-)) [(-)-Scopolamine methyl nitrate]
Raw Signal [1]: 57036 | Z-score [2]: 0.1966

COc1cc2c(cc1O)CC[C@@H]1[C@@H]2CC[C@]2(C)[C@@H](O)CC[C@@H]12 [2-methoxyestradiol]
Raw Signal [3]: 58620 | Z-score [4]: 0.7102

O=c1[nH]c2ccccc2n1C1CCN(CCCC(c2ccc(F)cc2)c2ccc(F)cc2)CC1 [Pimozide]
Raw Signal [1]: 53926 | Z-score [2]: -0.07855

Br.NCc1cc(O)no1 [Muscimol hydrobromide]
Raw Signal [1]: 54732 | Z-score [2]: -0.08835

CN1[C@@H]2CC[C@H]1C[C@@H](OC(c1ccccc1)c1ccccc1)C2 [Benztropine mesylate]
Raw Signal [3]: 60233 | Z-score [4]: 0.4086

O=[N+]([O-])c1cccc2c(Br)n[nH]c12 [3-Bromo-7-nitroindazole]
Raw Signal [6]: 68484 | Z-score [8]: 1.862

CN(C)C(=O)C(CCN1CCC(O)(c2ccc(Cl)cc2)CC1)(c1ccccc1)c1ccccc1 [Loperamide hydrochloride]
Raw Signal [6]: 51056 | Z-score [7]: -0.5608

N[C@H]1CON=C1O [L-Cycloserine]
Raw Signal [1]: 56773 | Z-score [5]: -0.2008

CCCN1CCc2cccc3c2[C@H]1Cc1ccc(O)c(O)c1-3.Cl [R(-)-Propylnorapomorphine hydrochloride]
Raw Signal [6]: 49804 | Z-score [7]: -1.089

N[C@@H](COP(=O)(O)O)C(=O)O [O-Phospho-L-serine]
Raw Signal [3]: 59842 | Z-score [4]: 0.9155

Cl.OC1CCCCC1N1CCC(c2ccccc2)CC1 (racemic) [(±)-Vesamicol hydrochloride]
Raw Signal [6]: 53363 | Z-score [7]: -0.5169

COC1=C(OC)C(=O)c2ccccc2C1=O [2,3-Dimethoxy-1,4-naphthoquinone]
Raw Signal [3]: 57485 | Z-score [4]: 0.4708

C[N+](C)(C)CCCCCCCCCC[N+](C)(C)C.[Br-].[Br-] [Decamethonium dibromide]
Raw Signal [6]: 52379 | Z-score [7]: -0.5662

C=CCc1ccccc1OCC(O)CNC(C)C (centres unmarked) [Alprenolol hydrochloride]
Raw Signal [3]: 60855 | Z-score [4]: 0.5181

C[C@]12CC[C@H](OS(=O)(=O)[O-])CC1=CC[C@@H]1[C@@H]2CC[C@]2(C)C(=O)CC[C@@H]12.[Na+] [Dehydroisoandrosterone 3-sulfate sodium]
Raw Signal [1]: 55598 | Z-score [2]: 0.08752

C[C@@H]1C(=O)NC2=Nc3cccc(Cl)c3CN21 [Quazinone]
Raw Signal [1]: 53682 | Z-score [5]: -0.455

N[C@@H](CCC(=O)N[C@@H](CSN=O)C(=O)NCC(=O)O)C(=O)O [S-Nitrosoglutathione]
Raw Signal [1]: 53456 | Z-score [5]: -0.1575

O=C1Cc2c([nH]c3ccc(Br)cc23)-c2ccccc2N1 [Kenpaullone]
Raw Signal [6]: 65095 | Z-score [8]: 1.798

CCN(CC)CCCC(C)Nc1ccnc2cc(Cl)ccc12 (centres unmarked) [Chloroquine diphosphate]
Raw Signal: 55954 | Z-score: -0.3451

C[C@]12CCC(=O)C=C1CC[C@@H]1[C@@H]2[C@@H](O)C[C@@]2(C)[C@H]1CC[C@]2(O)C(=O)CO [Hydrocortisone]
Raw Signal [1]: 54144 | Z-score [5]: -0.2078

O=C(O)CCc1nc(-c2ccccc2)c(-c2ccccc2)o1 [Oxaprozin]
Raw Signal [3]: 57771 | Z-score [4]: 0.5675

CN(C)c1nc(N(C)C)nc(N(C)C)n1 [Altretamine]
Raw Signal [6]: 69030 | Z-score [8]: 1.958

CN1CC[C@@]23CCCC[C@@H]2[C@@H]1Cc1ccc(O)cc13.O=C(O)C(O)C(O)C(=O)O [Dextrorphan D-tartrate]
Raw Signal [6]: 63036 | Z-score [8]: 1.598

COC(=O)c1c(C)[nH]c(C)c1C(=O)c1ccccc1Cc1ccccc1 [FPL 64176]
Raw Signal [1]: 56544 | Z-score [2]: 0.2796

CN(CCOc1ccc(C[C@H](Nc2ccccc2C(=O)c2ccccc2)C(=O)O)cc1)c1ccccn1 [GW1929]
Raw Signal [1]: 55887 | Z-score [2]: 0.1462

COc1ccc(C2CNC(=O)C2)cc1OC1CCCC1 (centres unmarked) [Rolipram]
Raw Signal [1]: 57545 | Z-score [2]: 0.2955

Nc1nc2c(ncn2COCCO)c(=O)[nH]1 [Acyclovir]
Raw Signal [6]: 53270 | Z-score [7]: -0.8178

CNc1ccc2oc(C[C@H]3O[C@@]4(CC[C@H]3C)O[C@H]([C@H](C)C(=O)c3ccc[nH]3)[C@H](C)C[C@H]4C)nc2c1C(=O)O [Calcimycin]
Raw Signal [6]: 66206 | Z-score [8]: 1.461

CCCCCCCCCC[Si](C)(C)CCC(=O)NC(Cc1ccc(C)cc1)c1ccccc1 (centres unmarked) [Sandoz 58-035]
Raw Signal [1]: 56427 | Z-score [5]: -0.2617
